Patent publication US8431593B2, “Heteroaryl amide derivatives” (H. Lundbeck A/S, priority 2006, dated 2013)

What follows are compounds tested against T1, P2X7 receptor (Homo sapiens, UniProt Q99572) (assay: P2X7 calcium mobilization assay, high throughput, antagonist activity (Example 4A)). Settings: not given.
T1 construct: host or cells: SH-SY5Y
T1 sequence (Q99572 1-595): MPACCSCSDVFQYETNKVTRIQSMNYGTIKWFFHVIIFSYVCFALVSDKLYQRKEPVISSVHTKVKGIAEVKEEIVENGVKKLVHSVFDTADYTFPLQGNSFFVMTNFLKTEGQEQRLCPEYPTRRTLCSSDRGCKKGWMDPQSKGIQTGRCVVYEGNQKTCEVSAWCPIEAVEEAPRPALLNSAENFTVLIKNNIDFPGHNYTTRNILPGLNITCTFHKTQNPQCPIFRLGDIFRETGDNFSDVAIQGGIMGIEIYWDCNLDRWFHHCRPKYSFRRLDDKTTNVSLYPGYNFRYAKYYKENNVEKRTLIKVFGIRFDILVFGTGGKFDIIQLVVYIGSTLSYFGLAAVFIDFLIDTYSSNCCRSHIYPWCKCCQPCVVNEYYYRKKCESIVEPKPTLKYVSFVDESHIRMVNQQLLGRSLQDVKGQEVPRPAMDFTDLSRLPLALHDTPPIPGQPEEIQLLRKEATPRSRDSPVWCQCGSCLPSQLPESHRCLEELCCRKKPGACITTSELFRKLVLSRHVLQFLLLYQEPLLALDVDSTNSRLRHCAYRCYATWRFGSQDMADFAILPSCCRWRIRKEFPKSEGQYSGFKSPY
Type: cell-based
Procedure: One day prior to the experiment, cells are plated at a density of 100,000 cells/well in a 96 well black/clear TC plate (Corning® Costar®, Sigma-Aldrich Co., St. Louis, Mo.). […] After one hour dye incubation, wells are rinsed once with 50 μL assay solution, and are then incubated for an hour at room temperature with 100 μL assay solution containing the test compound. […] After the one hour incubation, plates are transferred to a FLIPR^TETRA instrument (Molecular Devices, Sunnyvale, Calif.) for calcium mobilization analysis.
First, the average maximum relative fluorescent unit (RFU) response from the negative control wells (no agonist) is subtracted from the maximum response detected for each of the other experimental wells. Second, average maximum RFU response is calculated for the positive control wells (agonist wells).

Row | SMILES | IC50 [nM]
1 | CCOC(=O)c1cn2c(C(=O)NCC34CC5CC(CC(C5)C3)C4)cccc2n1 [Compound 2, ethyl 5-[(adamantan-1-ylmethyl)carbamoyl]imi-dazo[1,2-a]pyridine-2-carboxylate] | < 2000
2 | O=C(NCC12CC3CC(CC(C3)C1)C2)c1cccc2nc(CO)cn12 [Compound 3, N-(adamantan-1-ylmethyl)-2-(hydroxymethyl)imi-dazo[1,2-a]pyridine-5-carboxamide] | < 2000
3 | CCOC(=O)Cc1cn2c(C(=O)NCC34CC5CC(CC(C5)C3)C4)cccc2n1 [Compound 4, ethyl {5-[(adamantan-1-ylmethyl)carbamoyl]imi-dazo[1,2-a]pyridin-2-yl}acetate] | < 2000

Same assay, conditions: 50% decrease in the fluorescence response of cells exposed to 80 μM 2′(3′)-O-(4-benzoyl-benzoyl)adenosine 5′-triphosphate; Example 4A; read-out: IC50

Row | SMILES | IC50 [nM]
4 | CC1(C)C2CC[C@H](CNC(=O)c3cccc4nc(C(=O)N5CCC[C@@H](N)C5)cn34)C1C2 (relative stereo) [Compound 548, rel-2-{[(3R)-3-aminopiperidin-1-yl]carbonyl}-N-{[(2S)-6,6-dimethylbicyclo[3.1.1]hept-2-yl]methyl}imidazo[1,2-a]pyridine-5-carboxamide] | < 2000
5 | CC1(C)C2CC[C@H](CNC(=O)c3cccc4nc(CC(=O)N5CC[C@@H](N)C5)cn34)C1C2 (relative stereo) [Compound 549, rel-2-{2-[(3R)-3-aminopyrrolidin-1-yl]-2-oxoethyl}-N-{[(2S)-6,6-dimethylbicyclo[3.1.1]hept-2-yl]methyl}imidazo[1,2-a]pyridine-5-carboxamide] | < 2000
6 | CC1(C)C2CC[C@H](CNC(=O)c3cccc4nc(CC(=O)N5CCC[C@@H](N)C5)cn34)C1C2 (relative stereo) [Compound 550, rel-2-{2-[(3R)-3-aminopiperidin-1-yl]-2-oxoethyl}-N-{[(2S)-6,6-dimethylbicyclo[3.1.1]hept-2-yl]methyl}imidazo[1,2-a]pyridine-5-carboxamide] | < 2000
7 | CC1(C)[C@@H]2CC[C@@H](CNC(=O)c3cccc4nc(CC(=O)N5C[C@H]6CC5CN6)cn34)[C@H]1C2 (stereo in doubt) [Compound 558, 2-{2-[(1R,4R)-2,5-diazabicyclo[2.2.1]hept-2-yl]-2-oxoethyl}-N-{[(1R,2R,5R)-6,6-dimethylbicyclo [3.1.1]hept-2-yl]methyl}imidazo[1,2-a]pyridine-5-carboxamide] | < 2000

Same assay, conditions: 50% decrease in the fluorescence response of cells exposed to 80 μM of 2′(3′)-O-(4-benzoyl-benzoyl)adenosine 5′-triphosphate; Example 4A; read-out: IC50

Row | SMILES | IC50 [nM]
8 | CC1(C)C2CC[C@H](CNC(=O)c3cccc4nc(CC(=O)O)cn34)C1C2 (stereo in doubt) [Compound 682, (5-{[(6,6-dimethylbicyclo[3.1.1]hept-2-yl)methyl]carbamoyl}imidazo[1,2-a]pyridin-2-yl)acetic acid] | < 2000
9 | CC(C)CC(CNC(=O)c1cccc2nc(CN3CC[C@@H](NC(=O)OC(C)(C)C)C3)cn12)C1CCCCC1 (stereo in doubt) [Compound 738, tert-butyl [1-({5-[(2-cyclohexyl-4-methylpentyl)carbamoyl]imidazo [1,2-a]pyridin-2-yl}methyl)pyrrolidin-3-yl]carbamate] | < 2000
10 | CC(C)N[C@@H]1CCN(C(=O)c2cn3c(NC(=O)CC45CC6CC(CC(C6)C4)C5)cccc3n2)C1 (stereo in doubt) [Compound 743, 2-adamantan-1-yl-N-(2-{[3-(isopropylamino)pyrrolidin-1-yl]carbonyl}imidazo[1,2-a]pyridin-5-yl)acetamide] | < 2000
11 | CC(C(=O)N1CC[C@@H](NC(=O)OC(C)(C)C)C1)c1cn2c(C(=O)NCC34CC5CC(CC(C5)C3)C4)cccc2n1 (stereo in doubt) [Compound 749, tert-butyl [1-(2-{5-[(adamantan-1-ylmethyl)carbamoyl]imidazo[1,2-a]pyridin-2-yl}propanoyl)pyrrolidin-3-yl]carbamate] | < 2000
12 | CC(C(=O)N1CCC[C@@H](NC(=O)OC(C)(C)C)C1)c1cn2c(C(=O)NCC34CC5CC(CC(C5)C3)C4)cccc2n1 (stereo in doubt) [Compound 750, tert-butyl [1-(2-{5-[(adamantan-1-ylmethyl)carbamoyl]imidazo[1,2-a]pyridin-2-yl}propanoyl)piperidin-3-yl]carbamate] | < 2000
13 | CC(C)CC(CNC(=O)c1cccc2nc(CN3CC[C@@H](N)C3)cn12)c1ccc(C(F)(F)F)cc1 (stereo in doubt) [Compound 763, 2-[(3-aminopyrrolidin-1-yl)methyl]-N-{4-methyl-2-[4-(trifluoromethyl)phenyl]pentyl}imidazo [1,2-a] pyridine-5-carboxamide] | < 2000
14 | CC(C)(C)OC(=O)N[C@@H]1CCN(Cc2cn3c(C(=O)NCC(CC4CC4)c4ccccc4)cccc3n2)C1 (stereo in doubt) [Compound 776, tert-butyl [1-({5-[(3-cyclopropyl-2-phenylpropyl)carbamoyl]imidazo[1,2-a]pyridin-2-yl}methyl)pyrrolidin-3-yl]carbamate] | < 2000
15 | CC(C)(C)OC(=O)N[C@@H]1CCN(Cc2cn3c(C(=O)NCC(CC4CCC4)c4ccccc4)cccc3n2)C1 (stereo in doubt) [Compound 777, tert-butyl [1-({5-[(3-cyclobutyl-2-phenylpropyl)carbamoyl]imidazo[1,2-a]pyridin-2-yl}methyl)pyrrolidin-3-yl]carbamate] | < 2000
16 | CC(C)(C)OC(=O)N[C@@H]1CCN(Cc2cn3c(C(=O)NCC(CC4CCCC4)c4ccccc4)cccc3n2)C1 (stereo in doubt) [Compound 784, tert-butyl [1-({5-[(3-cyclopentyl-2-phenylpropyl)carbamoyl]imidazo[1,2-a]pyridin-2-yl}methyl)pyrrolidin-3-yl]carbamate] | < 2000

Same assay, conditions: 50% decrease in the fluorescence response of cells exposed to 80 μM of 2′(3′)-O-(4-benzoyl-benzoyl)adenosine 5′-triphosphate; determined as in Example 4A; read-out: IC50

Row | SMILES | IC50 [nM]
17 | O=C(NCC12CC3CC(CC(C3)C1)C2)c1cccc2nc([C@H]3CCCC[C@H]3C(=O)O)cn12 (relative stereo) [Compound 995, rel-(1R,2S)-2-{5-[(adamantan-1-ylmethyl)carbamoyl]imidazo[1,2-a]pyridin-2-yl} cyclohexane-carboxylic acid] | < 2000
18 | CCOC(=O)[C@@H]1CCCC[C@@H]1c1cn2c(C(=O)NCC34CC5CC(CC(C5)C3)C4)cccc2n1 (relative stereo) [Compound 996, ethyl rel-(1R,2S)-2-{5-[(adamantan-1-ylmethyl)carbamoyl]imidazo[1,2-a]pyridin-2-yl} cyclohexane-carboxylate] | < 2000

Same assay, conditions: SH-SY5Y cells; 50% decrease in fluorescence response to 80 μM BzATP; read-out: IC50

Row | SMILES | IC50 [nM]
19 | CC(C)C(=O)N[C@@H]1CCN(Cc2cn3c(C(=O)NCC45CC6CC(CC(C6)C4)C5)cccc3n2)C1 (stereo in doubt) [Compound 71, N-(adamantan-1-ylmethyl)-2-{[3-(isobutyryl-amino)pyrrolidin-1-yl]methyl}imidazo[1,2-a]pyridine-5-carboxamide] | < 2000
20 | N[C@H]1CCN(C(=O)Cc2cn3c(C(=O)NCC45CC6CC(CC(C6)C4)C5)cccc3n2)C1 (stereo in doubt) [Compound 144, N-(adamantan-1-ylmethyl)-2-[2-(3-aminopyrrolidin-1-yl)-2-oxoethyl]imidazo[1,2-a]pyridine-5-carboxamide] | < 2000
21 | O=C(NCC12CC3CC(CC(C3)C1)C2)c1cccc2nccn12 [Compound 1, N-(adamantan-1-ylmethyl)imidazo[1,2-a]pyridine-5-carboxamide] | < 2000

Same assay, conditions: fluorescence response of cells exposed to 80 μM 2′(3′)-O-(4-benzoyl-benzoyl)adenosine 5′-triphosphate; Example 4A; read-out: IC50

Row | SMILES | IC50 [nM]
22 | C[C@@H]1COC[C@H](C)N1Cc1cn2c(C(=O)NCC34CC5CC(CC(C5)C3)C4)cccc2n1 (relative stereo) [Compound 343, rel-N-(adamantan-l-ylmethy)-2-{[(3R, 5S)-3,5-dimethylmorpholin-4-yl]methyl}imidazo[1,2-a]pyridine-5-carboxamide] | < 2000
23 | CC1(C)[C@H]2CC[C@@H](CNC(=O)c3cccc4nc(C(=O)N5C[C@H]6CC5CN6)cn34)[C@@H]1C2 (stereo in doubt) [Compound 302, 2-[(1R,4R)-2,5-diazabicyclo[2.2.1]hept-2-ylcarbonyl]-N-{[(1S,2R,5S)-6,6-dimethylbicyclo[3.1.1]hept-2-yl]methyl}imidazo[1,2-a]pyridine-5-carboxamide] | < 2000
24 | CC1(C)[C@H]2CC[C@@H](CNC(=O)c3cccc4nc(C(=O)N5C[C@@H]6CC5CN6)cn34)[C@@H]1C2 (stereo in doubt) [Compound 303, 2-[(1S,4S)-2,5-diazabicyclo[2.2.1]hept-2-ylcarbonyl]-N-{[(1S,2R,5S)-6,6-dimethylbicyclo[3.1.1]hept-2-yl]methyl}imidazo[1,2-a]pyridine-5-carboxamide] | < 2000
